The values below come from PMC4967898, “Peptides interfering with protein-protein interactions in the ethylene signaling pathway delay tomato fruit ripening” (Scientific Reports, 2016).

Entries after “also recorded” stand apart in the source; their conditions may differ.

The subject of one series is living plants. As to conditions: cited from earlier work.
The nature of a further series: NOP-1 stability by LC/MS. Type of series: physicochemical. The settings on record: NOP-1 500 µg in 100 µl PBS pH 6.7, 0, 5, 10 and 15 days, room temperature; Supelcosil C18, 215 nm; identity by mass spectrometry. As to the method: Figure S4: Analysis of NOP-1 stability by liquid chromatography (LC).
Lyophilized NOP-1 (500 µg) was dissolved in 100 µl PBS pH 6.7, incubated for 0 days, 5 days, 10 days and 15 days at room temperatures and then applied to a Supelcosil C18 column (4.6x150 mm). The column was washed with 15 ml H2O with 0.1% TFA (buffer A).
Elution was performed with a linear gradient to 100% buffer B (100% acetonitrile with 0.1% TFA) over 30 min at a flow rate of 1 ml min-1. Detection was set to 215 nm. Identity of the peptide was confirmed by mass spectrometry. […]

In another series the test system is Arabidopsis EIN2-ETR1. The settings on record: proteins from Arabidopsis, cited from earlier work. An excerpt:
Studies on the related tomato proteins in this work emphasize that NOP-1 follows the same inhibitory mechanism also in other plants.

The subject of series [1] is green, immature tomato fruits. On the set-up: method as in PMID 25843012. As to conditions: cited from earlier work.
Series [2] has as its system green, immature tomato fruits. The series is described as follows: Tomato fruit ripening after inhibitor treatment. In kind it is in vivo, tomato (Solanum pimpinellifolium). An excerpt: To further investigate the potential of NOP-1 for agricultural applications, we tested the effect of the NOP-1 peptide on tomato fruit ripening in comparison to other known inhibitors of ethylene responses. To this end we tested […] (MCP) and aminoethoxyvinylglycine (AVG). MCP is a known inhibitor of ethylene signaling blocking ethylene binding at the receptor proteins, whereas AVG blocks ethylene production in the plant by competitive inhibition of ACC synthases. To monitor inhibition of the fruit ripening process, we treated green, immature tomato fruits with 200 μM NOP-1, MCP or AVG, respectively and documented the fruit ripening process for 20 days. Figure 3 compares the effect of the different inhibitor treatments on tomato fruits to controls lacking the inhibitory treatment that contain either buffer alone or a random sequence control peptide (ROP-1). […] The bioassays underline the high inhibitory potential of NOP-1 on the ripening process compared to the well-known and efficient inhibitors of ethylene responses.
Inhibitor-treatment of tomato fruits
Aminoethoxyvinyl glycine (AVG) was purchased from Sigma-Aldrich, St Louis, MO (purity ~95%). SmartFresh^SM (AgroFresh, Spring House, PA) was used as sugar-based powder formulation of 1-MCP. Concentration of 1-MCP was calculated according to the percentage of active ingredient (0.14%) and release from the SmartFresh^SM powder. For comparison concentration of all inhibitors are expressed in terms of molarity. For treatment of tomato fruits with NOP-1, AVG and MCP, inhibitors were dissolved in the FRET buffer described in the previous section to a final concentration of 200 μM. Green tomato fruits (Solanum pimpinellifolium) from the same estimated developmental stage were harvested from the panicle and water-cleaned. 300 μL of the inhibitor solution was applied onto the tomato surface with a brush and the fruits were air-dried for 30 min. As an alternative application, tomato fruits were plunged into 2 mL of the inhibitor solution and incubated for 30 min in this solution or 200 μL of the peptide-containing solution were carefully injected into the tomato tissue by a hypodermic syringe. Three individual tomato fruits were treated for the different applications of the peptide in order to document the ripening process. After inhibitor-treatment tomato fruits were transferred to a vial closed with aluminum foil and stored in the dark at room temperature. Maturation process was documented every second day for at least 20 days. For measurement of ethylene production, green tomato fruits were treated as described above.

As usually defined, the IC50 is the concentration that inhibits the measured activity by half. As for `CC(C)C[C@H](NC(=O)[C@H](CCCNC(=N)N)NC(=O)[C@H](CCCNC(=N)N)NC(=O)[C@H](CCCCN)NC(=O)[C@H](Cc1ccc(O)cc1)NC(=O)[C@H](CCCNC(=N)N)NC(=O)[C@H](CCCCN)NC(=O)[C@@H](N)CC(C)C)C(N)=O` [NOP-1, LKRYKRRL-NH2], the “inhibition of ethylene responses in living plants” value in the series on living plants is “potent inhibitor of ethylene responses in living plants”. Moreover, the “stability of the peptide” value in the series “NOP-1 stability by LC/MS” was “stable for several days at room temperature under normal conditions”. Moreover, the “effect on EIN2-ETR1 interaction in Arabidopsis” value with Arabidopsis EIN2-ETR1 was “reduced or abolished EIN2-ETR1 interaction; also recorded: able to disrupt interaction of EIN2 and ETR1”. The concentration for half-maximal inhibition (IC50) with Arabidopsis EIN2-ETR1 (read-out: IC50 for inhibition of EIN2-ETR1 interaction in Arabidopsis) was 93 µM. Besides, the “effect on fruit ripening in tomato, previous work” value in series [1] is “efficiently reduced fruit ripening in tomato”. Besides, the “delay in fruit ripening (Fig. 3c)” value in series [2] (200 μM, surface-treated, incubated or injected, versus untreated fruits) was “at least 5 days”. The “delay in maturation of tomato fruits” value in series [2] (200 μM, all tested inhibitors and all applications of NOP-1 (injection, incubation, surface application), documented for 20 days, three fruits per application) fell in the range of 10 to 15 days. Also, the “delay in maturation by application form (in words)” value in series [2] (200 μM, surface application compared with incubation and injection) is on record as “Delay in maturation process is most evident for fruit surface application”. The “effect on tomato fruit ripening (in words)” value in series [2] (compared with buffer or untreated control, inhibitors at 200 μM) is “delays ripening similar to known inhibitors of ethylene perception (MCP) and ethylene biosynthesis (AVG)”. In series [2] (inferred from ripening delay after surface application, 200 μM), the “penetration of fruit surface / uptake (in words)” value is “can easily penetrate the surface tissue of the tomatoes and is taken up by the fruits; also recorded: seems to penetrate the exocarp and is taken up by the fruits”. In addition, the “delay in ripening by injection (in words)” value in series [2] (injection into the fruits, initial experiments) is recorded as “less pronounced delay in ripening”. For the same molecule, the “delay in fruit ripening (Fig. 3a)” value in series [2] (surface-treated, 200 μM, versus untreated control fruits) is on record as “at least 15 days”.
